Results: ChEMBL document CHEMBL3112450, “Synthesis and in vitro antitumor evaluation of primary amine substituted quinazoline linked benzimidazole” (Bioorg Med Chem Lett, 2014)

Key:
Type in all cases: functional
[1] = test system: IGROV-1; experiment: Cytotoxicity against human IGROV1 cells assessed as cell growth at 10^-7 M after 48 hrs by SRB assay; details: IGROV-1, 48 h, read-out: Activity
[2] = test system: M14; experiment: Cytotoxicity against human M14 cells assessed as cell growth at 10^-7 M after 48 hrs by SRB assay; details: M14, 48 h, read-out: Activity
[3] = test system: SF-539; experiment: Cytotoxicity against human SF539 cells assessed as cell growth at 10^-7 M after 48 hrs by SRB assay; details: SF-539, 48 h, read-out: Activity
[4] = test system: HT-29; experiment: Cytotoxicity against human HT-29 cells assessed as cell growth at 10^-7 M after 48 hrs by SRB assay; details: HT-29, 48 h, read-out: Activity
[5] = test system: NCI-H322M; experiment: Cytotoxicity against human NCI-H322M cells assessed as cell growth at 10^-7 M after 48 hrs by SRB assay; details: read-out: Activity
[6] = test system: HL-60(TB); experiment: Cytotoxicity against human HL-60(TB) cells assessed as cell growth at 10^-7 M after 48 hrs by SRB assay; details: HL-60, 48 h, read-out: Activity
[7] = test system: ACHN; experiment: Cytotoxicity against human ACHN cells assessed as cell growth at 10^-4 M after 48 hrs by SRB assay; details: read-out: Activity
[8] = test system: SK-MEL-5; experiment: Cytotoxicity against human SK-MEL-5 cells assessed as cell growth at 10^-4 M after 48 hrs by SRB assay; details: SK-MEL-5, 48 h, read-out: Activity
[9] = test system: SK-MEL-28; experiment: Cytotoxicity against human SK-MEL-28 cells assessed as cell growth at 10^-8 M after 48 hrs by SRB assay; details: SK-MEL-28, 48 h, read-out: Activity
[10] = test system: HL-60(TB); experiment: Cytotoxicity against human HL-60(TB) cells assessed as cell growth at 10^-8 M after 48 hrs by SRB assay; details: HL-60, 48 h, read-out: Activity
[11] = test system: MDA-MB-468; experiment: Cytotoxicity against human MDA-MB-468 cells assessed as cell growth at 10^-5 M after 48 hrs by SRB assay; details: MDA-MB-468, 48 h, read-out: Activity
[12] = test system: T47D; experiment: Cytotoxicity against human T47D cells assessed as cell growth at 10^-5 M after 48 hrs by SRB assay; details: read-out: Activity
[13] = test system: MDA-MB-231; experiment: Cytotoxicity against human MDA-MB-231 cells assessed as cell growth at 10^-5 M after 48 hrs by SRB assay; details: MDA-MB-231, 48 h, read-out: Activity
[14] = test system: DU-145; experiment: Cytotoxicity against human DU145 cells assessed as cell growth at 10^-5 M after 48 hrs by SRB assay; details: DU-145, 48 h, read-out: Activity
[15] = Cytotoxicity against human UO31 cells assessed as cell growth at 10^-5 M after 48 hrs by SRB assay; details: UO-31, 48 h, read-out: Activity
[16] = test system: PC-3; experiment: Cytotoxicity against human PC3 cells assessed as cell growth at 10^-5 M after 48 hrs by SRB assay; details: PC-3, 48 h, read-out: Activity
[17] = test system: TK-10; experiment: Cytotoxicity against human TK10 cells assessed as cell growth at 10^-5 M after 48 hrs by SRB assay; details: TK-10, 48 h, read-out: Activity
[18] = test system: ACHN; experiment: Cytotoxicity against human ACHN cells assessed as cell growth at 10^-5 M after 48 hrs by SRB assay; details: read-out: Activity
[19] = test system: CAKI-1; experiment: Cytotoxicity against human Caki1 cells assessed as cell growth at 10^-5 M after 48 hrs by SRB assay; details: CAKI-1, 48 h, read-out: Activity
[20] = test system: UACC-62; experiment: Cytotoxicity against human UACC62 cells assessed as cell growth at 10^-5 M after 48 hrs by SRB assay; details: UACC-62, 48 h, read-out: Activity
[21] = test system: SF-268; experiment: Cytotoxicity against human SF268 cells after 48 hrs by SRB assay; details: SF-268, 48 h
[22] = test system: HCT-15; experiment: Cytotoxicity against human HCT15 cells after 48 hrs by SRB assay; details: HCT-15, 48 h
[23] = test system: HCT-116; experiment: Cytotoxicity against human HCT116 cells after 48 hrs by SRB assay; details: HCT-116, 48 h
[24] = test system: U-251; experiment: Cytotoxicity against human U251 cells assessed as cell growth at 10^-5 M after 48 hrs by SRB assay; details: U-251, 48 h, read-out: Activity
[25] = test system: SNB-19; experiment: Cytotoxicity against human SNB19 cells assessed as cell growth at 10^-5 M after 48 hrs by SRB assay; details: SNB-19, 48 h, read-out: Activity
[26] = test system: SF-295; experiment: Cytotoxicity against human SF295 cells assessed as cell growth at 10^-5 M after 48 hrs by SRB assay; details: SF-295, 48 h, read-out: Activity
[27] = test system: SF-539; experiment: Cytotoxicity against human SF539 cells assessed as cell growth at 10^-5 M after 48 hrs by SRB assay; details: SF-539, 48 h, read-out: Activity
[28] = test system: HCT-116; experiment: Cytotoxicity against human HCT116 cells assessed as cell growth at 10^-5 M after 48 hrs by SRB assay; details: HCT-116, 48 h, read-out: Activity
[29] = test system: COLO 205; experiment: Cytotoxicity against human COLO205 cells assessed as cell growth at 10^-5 M after 48 hrs by SRB assay; details: COLO 205, 48 h, read-out: Activity
[30] = test system: NCI-H460; experiment: Cytotoxicity against human NCI-H460 cells assessed as cell growth at 10^-5 M after 48 hrs by SRB assay; details: NCI-H460, 48 h, read-out: Activity
[31] = test system: NCI-H226; experiment: Cytotoxicity against human NCI-H226 cells assessed as cell growth at 10^-5 M after 48 hrs by SRB assay; details: NCI-H226, 48 h, read-out: Activity
[32] = test system: HOP-92; experiment: Cytotoxicity against human HOP92 cells assessed as cell growth at 10^-5 M after 48 hrs by SRB assay; details: HOP-92, 48 h, read-out: Activity
[33] = test system: SR; experiment: Cytotoxicity against human SR cells assessed as cell growth at 10^-5 M after 48 hrs by SRB assay; details: read-out: Activity
[34] = test system: RPMI-8226; experiment: Cytotoxicity against human RPMI8226 cells assessed as cell growth at 10^-5 M after 48 hrs by SRB assay; details: RPMI-8226, 48 h, read-out: Activity
[35] = test system: CCRF-CEM; experiment: Cytotoxicity against human CCRF-CEM cells assessed as cell growth at 10^-5 M after 48 hrs by SRB assay; details: read-out: Activity
[36] = test system: SNB-19; experiment: Cytotoxicity against human SNB19 cells assessed as cell growth at 10^-6 M after 48 hrs by SRB assay; details: SNB-19, 48 h, read-out: Activity
[37] = test system: HCT-116; experiment: Cytotoxicity against human HCT116 cells assessed as cell growth at 10^-6 M after 48 hrs by SRB assay; details: HCT-116, 48 h, read-out: Activity
[38] = test system: NCI-H226; experiment: Cytotoxicity against human NCI-H226 cells assessed as cell growth at 10^-6 M after 48 hrs by SRB assay; details: NCI-H226, 48 h, read-out: Activity
[39] = test system: MDA-MB-231; experiment: Cytotoxicity against human MDA-MB-231 cells assessed as cell growth at 10^-7 M after 48 hrs by SRB assay; details: MDA-MB-231, 48 h, read-out: Activity

C=CCn1c(C)nc2ccc(Nc3nc(Nc4ccc5nc(C)n(CC=C)c5c4)c4ccccc4n3)cc21
growth at 0.1 µM [1]: 101%
growth at 0.1 µM [2]: 94%
growth at 0.1 µM [3]: 94%
growth at 0.1 µM [4]: 101%
growth at 0.1 µM [5]: 90%
growth at 0.1 µM [6]: 94%
growth at 100 µM [7]: -69%
growth at 100 µM [8]: -24%
growth at 0.01 µM [9]: 98%
growth at 0.01 µM [10]: 97%
growth at 10 µM [11]: -99%
growth at 10 µM [12]: -91%
growth at 10 µM [13]: -100%
growth at 10 µM [14]: -98%
growth at 10 µM [15]: -91.4%
growth at 10 µM [16]: -82%
growth at 10 µM [17]: -97%
growth at 10 µM [18]: -99%
growth at 10 µM [19]: -81%
growth at 10 µM [20]: -100%
GI50 [21]: 1540 nM
TGI [21]: 3220 nM
GI50 [22]: 1770 nM
TGI [22]: 3550 nM
GI50 [23]: 1370 nM
growth at 10 µM [24]: -100%
growth at 10 µM [25]: -69%
growth at 10 µM [26]: -80%
growth at 10 µM [27]: -96%
growth at 10 µM [28]: -100%
growth at 10 µM [29]: -100%
growth at 10 µM [30]: -74%
growth at 10 µM [31]: -87%
growth at 10 µM [32]: -80%
growth at 10 µM [33]: -57.2%
growth at 10 µM [34]: -43.3%
growth at 10 µM [35]: -20.8%
growth at 1 µM [36]: 85%
growth at 1 µM [37]: 74%
growth at 1 µM [38]: 94%
growth at 0.1 µM [39]: 87%
